Data reported in the NIST ThermoML archive (doi:10.1021/je060139a).

Columns and labels:
[1] = refractive index (Na D-line) (dimensionless); xn = mol fraction of the nth substance listed; settings: 100.5 kPa, Liquid, Standard Abbe refractometry
[2] = xn = mol fraction of the nth substance listed; settings: Wilhelmy plate method

CCOC(=O)c1ccccc1O [ethyl 2-hydroxybenzoate] + CCO
Settings | refractive index, 288.15 K | refractive index, 298.18 K | refractive index, 308.15 K | refractive index, 318.15 K | surface tension liquid-gas, 288.15 K [mN/m] | surface tension liquid-gas, 298.18 K [mN/m] | surface tension liquid-gas, 308.15 K [mN/m] | surface tension liquid-gas, 318.15 K [mN/m]
[1], x1 = 0.05 | 1.38326 | 1.37908 | 1.37478 | 1.37068 | – | – | – | –
[1], x1 = 0.1 | 1.40028 | 1.39599 | 1.39159 | 1.38739 | – | – | – | –
[1], x1 = 0.15 | 1.41504 | 1.41072 | 1.40628 | 1.40202 | – | – | – | –
[1], x1 = 0.2 | 1.42788 | 1.42347 | 1.41902 | 1.4147 | – | – | – | –
[1], x1 = 0.25 | 1.43914 | 1.43468 | 1.4302 | 1.4258 | – | – | – | –
[1], x1 = 0.3 | 1.44918 | 1.44465 | 1.44012 | 1.43567 | – | – | – | –
[1], x1 = 0.35 | 1.4582 | 1.45364 | 1.44908 | 1.44456 | – | – | – | –
[1], x1 = 0.4 | 1.46635 | 1.46177 | 1.45719 | 1.45266 | – | – | – | –
[1], x1 = 0.45 | 1.47375 | 1.46918 | 1.46462 | 1.46008 | – | – | – | –
[1], x1 = 0.5 | 1.48051 | 1.47593 | 1.47139 | 1.46685 | – | – | – | –
[1], x1 = 0.55 | 1.4867 | 1.48212 | 1.4776 | 1.47306 | – | – | – | –
[1], x1 = 0.6 | 1.49239 | 1.48782 | 1.48328 | 1.47873 | – | – | – | –
[1], x1 = 0.65 | 1.49763 | 1.49304 | 1.48852 | 1.48397 | – | – | – | –
[1], x1 = 0.7 | 1.50246 | 1.49784 | 1.49331 | 1.48874 | – | – | – | –
[1], x1 = 0.75 | 1.50695 | 1.50232 | 1.49779 | 1.49321 | – | – | – | –
[1], x1 = 0.8 | 1.51112 | 1.50649 | 1.50196 | 1.49738 | – | – | – | –
[1], x1 = 0.85 | 1.51498 | 1.51035 | 1.50582 | 1.50123 | – | – | – | –
[1], x1 = 0.9 | 1.51852 | 1.51391 | 1.50938 | 1.50479 | – | – | – | –
[1], x1 = 0.95 | 1.52184 | 1.51723 | 1.51272 | 1.50814 | – | – | – | –
[1], x1 = 1 | 1.52481 | 1.52022 | 1.51573 | 1.51116 | – | – | – | –
[2], x1 = 0.05 | – | – | – | – | 24 | 23.17 | 22.27 | 21.3
[2], x1 = 0.1 | – | – | – | – | 24.8 | 23.9 | 22.94 | 21.97
[2], x1 = 0.15 | – | – | – | – | 25.5 | 24.55 | 23.55 | 22.57
[2], x1 = 0.2 | – | – | – | – | 26.1 | 25.14 | 24.13 | 23.17
[2], x1 = 0.25 | – | – | – | – | 26.65 | 25.65 | 24.67 | 23.7
[2], x1 = 0.3 | – | – | – | – | 27.2 | 26.15 | 25.17 | 24.2
[2], x1 = 0.35 | – | – | – | – | 27.7 | 26.65 | 25.62 | 24.67
[2], x1 = 0.4 | – | – | – | – | 28.1 | 27.1 | 26.08 | 25.17
[2], x1 = 0.45 | – | – | – | – | 28.6 | 27.55 | 26.58 | 25.7
[2], x1 = 0.5 | – | – | – | – | 29.13 | 28.1 | 27.12 | 26.25
[2], x1 = 0.55 | – | – | – | – | 29.71 | 28.66 | 27.68 | 26.8
[2], x1 = 0.6 | – | – | – | – | 30.33 | 29.25 | 28.26 | 27.38
[2], x1 = 0.65 | – | – | – | – | 31 | 29.9 | 28.9 | 28
[2], x1 = 0.7 | – | – | – | – | 31.7 | 30.6 | 29.56 | 28.67
[2], x1 = 0.75 | – | – | – | – | 32.5 | 31.38 | 30.3 | 29.4
[2], x1 = 0.8 | – | – | – | – | 33.4 | 32.25 | 31.13 | 30.2
[2], x1 = 0.85 | – | – | – | – | 34.4 | 33.18 | 32.03 | 31.1
[2], x1 = 0.9 | – | – | – | – | 35.4 | 34.18 | 33.03 | 32.18
[2], x1 = 0.95 | – | – | – | – | 36.4 | 35.17 | 34.07 | 33.2
[2], x1 = 1 | – | – | – | – | 37.5 | 36.3 | 35.2 | 34.4
